Data on 24 compounds can be found in patent US8003785B2 (Takeda Pharmaceutical Company Limited, priority 2008, dated 2011).

The target of the first assay is T1, PLK1 (Homo sapiens, UniProt P53350).
T1 construct: Full-length, active GST-PLK1 is purified from Sf9 insect cells; made in house; host or cells: Sf9 insect cells
T1 sequence (P53350 whole entry): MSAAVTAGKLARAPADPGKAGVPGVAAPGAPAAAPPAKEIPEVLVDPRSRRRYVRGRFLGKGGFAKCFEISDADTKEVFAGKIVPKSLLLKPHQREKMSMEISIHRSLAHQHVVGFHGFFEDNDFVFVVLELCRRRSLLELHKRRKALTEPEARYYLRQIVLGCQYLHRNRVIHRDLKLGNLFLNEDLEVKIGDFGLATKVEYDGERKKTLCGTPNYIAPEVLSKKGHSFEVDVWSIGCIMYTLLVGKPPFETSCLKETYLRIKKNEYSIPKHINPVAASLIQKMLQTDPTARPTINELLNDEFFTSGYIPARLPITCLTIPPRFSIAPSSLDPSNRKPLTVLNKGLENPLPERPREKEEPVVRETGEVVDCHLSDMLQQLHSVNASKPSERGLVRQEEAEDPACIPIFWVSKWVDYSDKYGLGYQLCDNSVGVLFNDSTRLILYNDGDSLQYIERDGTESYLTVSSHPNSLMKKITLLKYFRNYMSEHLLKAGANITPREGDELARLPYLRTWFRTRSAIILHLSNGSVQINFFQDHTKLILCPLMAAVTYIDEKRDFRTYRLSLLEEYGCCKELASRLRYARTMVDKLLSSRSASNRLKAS
The assay is described as follows: Biochemical Characterization Assay: HTRF kinase assay, GST-PLK1 phosphorylation of GST-p53. The following applies: GST-PLK1, GST-p53 substrate. Here is the method:
Biochemical Characterization Assay
Full-length, active GST-PLK1 is purified from Sf9 insect cells, and full-length GST-p53 is purified from E. coli. Anti-phospho p53 antibody is from Cell Signaling Technology. Europium-conjugated anti-rabbit antibody is from PerkinElmer Life and Analytical Sciences. APC-conjugated anti-GST antibody is from Prozyme.
Six microliters of GST-PLK1 (3 ug/mL) in Kinase Assay Buffer are then added and the solution incubated at 37° C. for 35 minutes. Six microliters of solution containing 43 mM EDTA to stop the reaction and a 1:600 dilution of anti-phospho-p53 antibody in 20 mM HEPES pH 7, 50 mM NaCl, and 0.5 mg/mL BSA (Antibody Binding Buffer) are added and the solution incubated at 37° C. for 30 minutes. […] The HTRF signal is read on an Envision reader from PerkinElmer Life and Analytical Sciences.
On the technique in general: TR-FRET usually uses a lanthanide donor and a delayed reading to cut background.
Turning to `COc1cc(C(=O)NC2CCN(C)CC2)ccc1Nc1ncc2c(n1)N([C@@H]1C[C@H]1c1ccccc1)CC(F)(F)C(=O)N2C` (relative stereo) [Example I-288, 4-[7,7-difluoro-5-methyl-6-oxo-9-(trans-2-phenyl-cyclopropyl)-6,7,8,9-tetrahydro-5H-pyrimido[4,5-b][1,4]diazepin-2-ylamino]-3-methoxy-N-(1-methyl-piperidin-4-yl)-benzamide], the half-inhibitory concentration (IC50) lay in the range of 51 to 500 nM.
The same measure, in the same setting: the figure for `CN(C)CCCNC(=O)c1ccc(Nc2ncc3c(n2)N(C2CCCC2)CC(F)(F)C(=O)N3C)c(F)c1` [Example I-227, 4-(9-cyclopentyl-7,7-difluoro-5-methyl-6-oxo-6,7,8,9-tetrahydro-5H-pyrimido[4,5-b][1,4]diazepin-2-ylamino)-N-(3-dimethylamino-propyl)-3-fluoro-benzamide] is 1 to 50 nM; for `CN1C(=O)C(F)(F)CN(C2CCCC2)c2nc(Nc3cc(F)c(C(=O)NC4CCNCC4)cc3F)ncc21` [Example I-240, 4-(9-cyclopentyl-7,7-difluoro-5-methyl-6-oxo-6,7,8,9-tetrahydro-5H-pyrimido[4,5-b][1,4]diazepin-2-ylamino)-2,5-difluoro-N-piperidin-4-yl-benzamide] it is 1 to 50 nM.
On the same count and under the same terms, for `CN1C(=O)C(F)(F)CN(C2CCCCC2)c2nc(Nc3ccc(C(=O)NC4CCNCC4)cc3)ncc21` [Example I-260, 4-(9-cyclohexyl-7,7-difluoro-5-methyl-6-oxo-6,7,8,9-tetrahydro-5H-pyrimido[4,5-b][1,4]diazepin-2-ylamino)-N-piperidin-4-yl-benzamide] the value was 1 to 50 nM; for `CN1C(=O)C(F)(F)CN(C2CCCCC2)c2nc(Nc3ccc(C(=O)NC4CCOCC4)cc3)ncc21` [Example I-263, 4-(9-cyclohexyl-7,7-difluoro-5-methyl-6-oxo-6,7,8,9-tetrahydro-5H-pyrimido[4,5-b][1,4]diazepin-2-ylamino)-N-(tetrahydro-pyran-4-yl)-benzamide], 1 to 50 nM; for `COc1cc(C(=O)O)ccc1Nc1ncc2c(n1)N(C1CCCCC1)CC(F)(F)C(=O)N2C` [Example I-246, 4-(9-cyclohexyl-7,7-difluoro-5-methyl-6-oxo-6,7,8,9-tetrahydro-5H-pyrimido[4,5-b][1,4]diazepin-2-ylamino)-3-methoxy-benzoic acid], 1 to 50 nM.
On the same count and under the same terms, the figure for `CCN1C(=O)C(F)(F)CN(C2CCCC2)c2nc(Nc3ccc(C(=O)NC4CCOCC4)cc3OC)ncc21` [Example I-161, 4-(9-cyclopentyl-5-ethyl-7,7-difluoro-6-oxo-6,7,8,9-tetrahydro-5H-pyrimido[4,5-b][1,4]diazepin-2-ylamino)-3-methoxy-N-(tetrahydro-pyran-4-yl)-benzamide] is 500 to 5000 nM; for `COc1cc(C(=O)NC2CCN(C)CC2)ccc1Nc1ncc2c(n1)N(CCc1ccccc1)CC(F)(F)C(=O)N2C` [Example I-276, 4-(7,7-difluoro-5-methyl-6-oxo-9-phenethyl-6,7,8,9-tetrahydro-5!-pyrimido[4,5-b][1,4]diazepin-2-ylamino)-3-methoxy-N-(1-methyl-piperidin-4-yl)-benzamide] it is 1 to 50 nM.
The compound `COc1cc(C(=O)O)ccc1Nc1ncc2c(n1)N(C(C)C)CC(F)(F)C(=O)N2C` [Example I-292, 4-(7,7-difluoro-9-isopropyl-5-methyl-6-oxo-6,7,8,9-tetrahydro-5H-pyrimido[4,5-b][1,4]diazepin-2-ylamino)-3-methoxy-benzoic acid] yielded an IC50 of 51 to 500 nM.
The same measure, in the same setting: the figure for `CN1C(=O)C(F)(F)CN(C2CCCC2)c2nc(Nc3ccc(C(=O)NC4CCOCC4)cc3F)ncc21` [Example I-225, 4-(9-cyclopentyl-7,7-difluoro-5-methyl-6-oxo-6,7,8,9-tetrahydro-5H-pyrimido[4,5-b][1,4]diazepin-2-ylamino)-3-fluoro-N-(tetrahydro-pyran-4-yl)-benzamide] is 1 to 50 nM; for `CN(C)CCNC(=O)c1ccc(Nc2ncc3c(n2)N(C2CCCC2)CC(F)(F)C(=O)N3C)c(C(F)(F)F)c1` [Example I-208, 4-(9-cyclopentyl-7,7-difluoro-5-methyl-6-oxo-6,7,8,9-tetrahydro-5H-pyrimido[4,5-b][1,4]diazepin-2-ylamino)-N-(2-dimethylamino-ethyl)-3-trifluoromethyl-benzamide] it is 51 to 500 nM.
Take `COc1cc(C(N)=O)ccc1Nc1ncc2c(n1)N(C(C)C)CC(F)(F)C(=O)N2C` [Example I-294, 4-(7,7-difluoro-9-isopropyl-5-methyl-6-oxo-6,7,8,9-tetrahydro-5H-pyrimido[4,5-b][1,4]diazepin-2-ylamino)-3-methoxy-benzamide]: the IC50 was 1 to 50 nM.

Staying with this assay, now noted: GST-PLK1, GST-p53 substrate, ATP.
Take `COc1cc(C(=O)NC2CCOCC2)ccc1Nc1ncc2c(n1)N(C1CCC1)CC(F)(F)C(=O)N2C` [Example I-7, 4-(9-cyclobutyl-7,7-difluoro-5-methyl-6-oxo-6,7,8,9-tetrahydro-5H-pyrimido[4,5-b][1,4]diazepin-2-ylamino)-3-methoxy-N-(tetrahydro-pyran-4-yl)-benzamide]: the IC50 is 1 to 50 nM.
On the same count and under the same terms, for `COc1cc(C(=O)NCCCN2CCOCC2)ccc1Nc1ncc2c(n1)N(C1CCCC1)CC(F)(F)C(=O)N2C` [Example I-79, 4-(9-cyclopentyl-7,7-difluoro-5-methyl-6-oxo-6,7,8,9-tetrahydro-5H-pyrimido[4,5-b][1,4]diazepin-2-ylamino)-3-methoxy-N-(3-morpholin-4-yl-propyl)-benzamide] the value was 1 to 50 nM; for `CCCN1C(=O)C(F)(F)CN(C2CCCC2)c2nc(Nc3ccc(C(=O)NC4CCOCC4)cc3)ncc21` [Example I-149, 4-(9-cyclopentyl-7,7-difluoro-6-oxo-5-propyl-6,7,8,9-tetrahydro-5H-pyrimido[4,5-b][1,4]diazepin-2-ylamino)-N-(tetrahydro-pyran-4-yl)-benzamide], 500 to 5000 nM; for `COc1cc(C(=O)NCc2ccc(C(F)(F)F)cc2)ccc1Nc1ncc2c(n1)N(C1CCCC1)CC(F)(F)C(=O)N2C` [Example I-36, 4-(9-cyclopentyl-7,7-difluoro-5-methyl-6-oxo-6,7,8,9-tetrahydro-5H-pyrimido[4,5-b][1,4]diazepin-2-ylamino)-3-methoxy-N-(4-trifluoromethyl-benzyl)-benzamide], 500 to 5000 nM.
Same read-out and setting: for `COc1cc(C(=O)NC2CCN(C(C)=O)CC2)ccc1Nc1ncc2c(n1)N(C1CCCC1)CC(F)(F)C(=O)N2C` [Example I-102, N-(1-acetyl-piperidin-4-yl)-4-(9-cyclopentyl-7,7-difluoro-5-methyl-6-oxo-6,7,8,9-tetrahydro-5H-pyrimido[4,5-b][1,4]diazepin-2-ylamino)-3-methoxy-benzamide] the value was 1 to 50 nM.
The same measure, in the same setting: for `CCN1CCC(NC(=O)c2ccc(Nc3ncc4c(n3)N(C3CCC3)CC(F)(F)C(=O)N4C)c(OC)c2)CC1` [Example I-10, 4-(9-cyclobutyl-7,7-difluoro-5-methyl-6-oxo-6,7,8,9-tetrahydro-5H-pyrimido[4,5-b][1,4]diazepin-2-ylamino)-N-(1-ethyl-piperidin-4-yl)-3-methoxy-benzamide] the value was 1 to 50 nM.
Regarding `COc1cc(C(=O)NCCN2CCCCC2)ccc1Nc1ncc2c(n1)N(C1CCCC1)CC(F)(F)C(=O)N2C` [Example I-114, 4-(9-cyclopentyl-7,7-difluoro-5-methyl-6-oxo-6,7,8,9-tetrahydro-5H-pyrimido[4,5-b][1,4]diazepin-2-ylamino)-3-methoxy-N-(2-piperidin-1-yl-ethyl)-benzamide], the IC50 was in the range of 1 to 50 nM.
On the same count and under the same terms, the figure for `COc1cc(C(=O)NCc2ccccn2)ccc1Nc1ncc2c(n1)N(C1CCCC1)CC(F)(F)C(=O)N2C` [Example I-109, 4-(9-cyclopentyl-7,7-difluoro-5-methyl-6-oxo-6,7,8,9-tetrahydro-5H-pyrimido[4,5-b][1,4]diazepin-2-ylamino)-3-methoxy-N-pyridin-2-ylmethyl-benzamide] is 1 to 50 nM; for `CCN(CC)CCCNC(=O)c1ccc(Nc2ncc3c(n2)N(C2CCCC2)CC(F)(F)C(=O)N3C)c(OC)c1` [Example I-123, 4-(9-cyclopentyl-7,7-difluoro-5-methyl-6-oxo-6,7,8,9-tetrahydro-5H-pyrimido[4,5-b][1,4]diazepin-2-ylamino)-N-(3-diethylamino-propyl)-3-methoxy-benzamide] it is 1 to 50 nM.
The same measure, in the same setting: the figure for `COc1cc(C(=O)NCCCNC(=O)OCC2c3ccccc3-c3ccccc32)ccc1Nc1ncc2c(n1)N(C1CCCC1)CC(F)(F)C(=O)N2C` [Example I-73, {3-[4-(9-cyclopentyl-7,7-difluoro-5-methyl-6-oxo-6,7,8,9-tetrahydro-5H-pyrimido[4,5-b][1,4]diazepin-2-ylamino)-3-methoxy-benzoylamino]-propyl}-carbamic acid 9H-fluoren-9-ylmethyl ester] is 51 to 500 nM.
The same measure, in the same setting: for `CCN1C(=O)C(F)(F)CN(C2CCCC2)c2nc(Nc3ccc(C(=O)NCCCN(C)C)cc3)ncc21` [Example I-142, 4-(9-cyclopentyl-5-ethyl-7,7-difluoro-6-oxo-6,7,8,9-tetrahydro-5H-pyrimido[4,5-b][1,4]diazepin-2-yl-amino)-N-(3-dimethyl-amino-propyl)-benzamide] the value was 500 to 5000 nM; for `COc1cc(C(=O)NCCNc2ccccc2)ccc1Nc1ncc2c(n1)N(C1CCCC1)CC(F)(F)C(=O)N2C` [Example I-119, 4-(9-cyclopentyl-7,7-difluoro-5-methyl-6-oxo-6,7,8,9-tetrahydro-5H-pyrimido[4,5-b][1,4]diazepin-2-ylamino)-3-methoxy-N-(2-phenylamino-ethyl)-benzamide], 51 to 500 nM.

For orientation: IC50 means the midpoint of a concentration-inhibition curve. A low value points to higher potency.
